Assays:
[1] = system: special operations veterans with combat and/or blast exposure; experiment: Montgomery-Asberg Depression Rating Scale (MADRS), incl. suicidal ideation item Q10; format: in vivo, human; details: for Suicidal Ideation (MADRS Q10), % Reporting: only participants with non-zero suicidal ideation at baseline (N 14), baseline 100%
Text: The pre-specified primary outcome was change in the World Health Organization Disability Assessment Schedule 2.0 (WHODAS) (Gold L. H. et al., J. Am. Acad. Psychiatry Law 42, 9 (2014)) from baseline to post-treatment, with change from baseline to the one-month follow-up a secondary outcome. Additional pre-specified secondary outcomes included post-treatment changes on the Clinician Administered PTSD Scale (CAPS-5; Weathers, F. W. et al., Psychol. Assess., 30, 383-395 (2018)), Montgomery-Åsberg Depression Rating Scale (MADRS; Montgomery, S. A., Br. J. Psychiatry J. Ment. Sci., 134, 382-389 (1979)) and the Hamilton-Anxiety Rating Scale (HAM-A; Bruss, G. S., et al., Psychiatry Res., 53, 191-202 (1994)). […] An additional dose of magnesium was administered approximately 12 hours later. To assess the significance of post-treatment changes, linear mixed effects (LME) models were used for each outcome measure. False Discovery Rate (FDR; Benjamini, Y. et al., J. R. Stat. Soc. Ser. B Methodol., 57, 289-300 (1995)) was applied to correct for multiple comparisons.
(§1) To further assess changes in comorbid psychiatric symptoms identified by the models, mean percent reduction, response rate, and remission rate according to the CAPS-5, MADRS and HAM-A (Table 1) were calculated. Response on the CAPS-5, MADRS, and HAM-A was defined as a reduction of at least 10 points (Mitchell, J. M. et al., Nat. Med. 27, 1025-1033(2021)), 50% (Leucht, S. et al., J. Affect. Disord. 210, 287-293 (2017)), and 50% (McIntyre, A. et al., Depress. Anxiety 24, 487-494 (2007)), respectively; remission as loss of diagnosis and a total score below 12 (Mitchell, J. M. et al. supra), <8 (Leucht, S. et al. supra), and <8(McIntyre, A. et al., supra), respectively.
With subjects in the fasting state, an intravenous infusion of 1 gram of magnesium sulfate was administered 1-2 hours prior to treatment. […] Medical staff (MD, RN, or EMT) were onsite at a ratio of at least 1 staff per 2 patients throughout treatment for monitoring and management, but no specific coaching or psychological support was provided during treatment.
Clinician administered scales included CAPS-5 (Clinician-administered PTSD Scale for DSM-5), which is a gold standard assessment of PTSD symptom severity; MADRS (Montgomery-Asberg Depression Rating Scale), a measure for depressive symptom severity: and Hamilton-Anxiety Rating Scale (HAM-A) (Shear, M. K. et al., Depress. Anxiety 13, 166-178 (2001)) a measure for anxiety symptom severity: SCID-5 (Structured Clinical Interview for DSM-5) Overview for a historical and environmental context of symptom presentation: MINI DSM-5 (Mini International Neuropsychiatric Interview from DSM-5) for a structured psychodiagnostics assessment: BAT-L (Boston Assessment of TBI-Lifetime) for a lifetime history of TBI and blast exposure: and Ohio State University TBI Identification Method (Short Form) for a lifetime history of TBI. MADRS testing provides an indication of depressive symptoms, CAPS-5 provides an indication of PTSD and SIGH-A provides an indication of anxiety. Collectively these overlap to provide indication of mood, concentration, sleep and tension.
The MADRS is a clinician-administered 10-item scale assessing the severity of depression symptoms. Items are rated on a scale of 0 (no abnormality) to 6 (severe) (Montgomery, S. A. et al., Br. J. Psychiatry J. Ment. Sci. 134, 382-389 (1979)). A total score of 0-6 indicates no depression, 7-19 mild depression, 20-34 moderate depression, 35-59 severe depression, and 60+ very severe depressive symptoms (Müller, M. J., J. Affect. Disord. 77, 255-260 (2003)).

[2] = system: special operations veterans with combat and/or blast exposure; experiment: Clinician-rated psychiatric assessments taken together (CAPS-5, MADRS, HAM-A); format: in vivo, human
Experimental: as §1, with “respectively. One participant's baseline scores met criteria for remission in all three scales and so were excluded from the calculation of response and remission rates, leaving 29 participants in these specific analyses.” for “respectively.”
The results were similar, with remission rates at one-month follow up of at least 67% (Table 1-3 in Example 1). To determine if the participants with more severe TBI history may be biasing results, a sensitivity analysis excluding the participants with non-mild TBI; results was done, again with the results largely unchanged (Table 1-4 in Example 1), with remission rates at one-month follow up of at least 85%.

[3] = 1-mo. post, only participants meeting relevant MINI diagnostic criteria
[4] = 1-mo. post, only participants with mild TBI
[5] = 1-wk. post, only participants meeting relevant MINI diagnostic criteria
[6] = 1-wk. post, only participants with mild TBI
[7] = one-week and one-month post, 29 participants

CCC1CC2CC3c4[nH]c5ccc(OC)cc5c4CCN(C2)C13 (stereo not drawn) [ibogaine, Ibogaine]
MADRS % Reduction vs Baseline [1, 3]: 81% ± 21% | MADRS Remission Rate [1, 3]: 67% | MADRS Response Rate [1, 3]: 93% | MADRS score ([1]; 1-mo. post, only participants meeting relevant MINI diagnostic criteria at baseline (N 15), baseline 31.3 ± 6.5): 6.4 | MADRS % Reduction vs Baseline [1, 4]: 87% ± 17% | MADRS Remission Rate [1, 4]: 85% | MADRS Response Rate [1, 4]: 96% | MADRS score ([1]; 1-mo. post, only participants with mild TBI (N 28), baseline 25.2 ± 8.7): 3.6 | Suicidal Ideation (MADRS Q10), % Reporting ([1]; 1-mo. post): 14% | MADRS score ([1]; 1-wk post, only participants meeting relevant MINI diagnostic criteria at baseline (N 15), baseline 31.3 ± 6.5): 3.6 | Suicidal Ideation (MADRS Q10), % Reporting ([1]; 1-wk post): 0% | MADRS % Reduction vs Baseline [1, 5]: 89% ± 11% | MADRS Remission Rate [1, 5]: 73% | MADRS Response Rate [1, 5]: 100% | MADRS % Reduction vs Baseline [1, 6]: 87% ± 24% | MADRS Remission Rate [1, 6]: 85% | MADRS Response Rate [1, 6]: 100% | MADRS score ([1]; 1-wk. post, only participants with mild TBI (N 28), baseline 25.2 ± 8.7): 2.7 | subjects meeting criteria for remission with a MADRS score of less than 7 ([1]; FIG. 4B): 82% | subjects meeting criteria for response, reduction of more than 50% in MADRS symptom severity ([1]; FIG. 4B): 96% | MADRS, effect size D ([1]; baseline vs 1-mo. post, only participants meeting relevant MINI diagnostic criteria (N 15)): 3.15 | MADRS, effect size D ([1]; baseline vs 1-mo. post, only participants with mild TBI (N 28)): 2.70 | MADRS, effect size D ([1]; baseline vs 1-wk post, only participants with mild TBI (N 28)): 2.55 | MADRS, effect size D ([1]; baseline vs 1-wk. post, only participants meeting relevant MINI diagnostic criteria (N 15)): 4.11 | MADRS, effect size D ([1]; baseline vs one-month post, all participants): 2.80 | MADRS, effect size D ([1]; baseline vs one-week post, all participants): 2.65 | MADRS Remission Rate ([1]; one-month post, 29 participants, remission = score <8): 83% | MADRS Response Rate ([1]; one-month post, 29 participants, response = reduction of at least 50%): 97% | MADRS score ([1]; one-month post, all participants, baseline 25.6 ± 8.7, mean ± SD): 3.8 | MADRS % Reduction vs Baseline ([1]; one-month post, all participants, mean ± SD): 87% ± 17% | MADRS Remission Rate ([1]; one-week post, 29 participants, remission = score <8): 83% | MADRS Response Rate ([1]; one-week post, 29 participants, response = reduction of at least 50%): 100% | MADRS % Reduction vs Baseline ([1]; one-week post, all participants, mean ± SD): 87% ± 23% | remission rates on CAPS-5, MADRS and HAM-A ([2]; one-month follow up, excluding participants with non-mild TBI): at least 85% | remission rates on CAPS-5, MADRS and HAM-A ([2]; one-month follow up, subgroups meeting criteria for the disorder assessed by the scale): at least 67% | remission rates on CAPS-5, MADRS and HAM-A [2, 7]: at least 83% | response rates on CAPS-5, MADRS and HAM-A [2, 7]: at least 93% | mean percent reductions on CAPS-5, MADRS and HAM-A ([2]; one-week and one-month post, all participants): at least 81% | remission rates for comorbid PTSD, depression, and anxiety ([2]; secondary analyses): around 80%
